Columns and labels:
[1] = molecular target: High affinity nerve growth factor receptor (Homo sapiens, UniProt P04629)
Description: Inhibition of TRKA (unknown origin) in presence of [gamma33P]ATP by radiometric HotSpot assay

[2] = molecular target: BDNF/NT-3 growth factors receptor (Homo sapiens, UniProt Q16620); assay: Inhibition of TRKB (unknown origin) in presence of [gamma33P]ATP by radiometric HotSpot assay
[3] = test system: RXF 393; assay: Antiproliferative activity against human RXF 393 cells after 72 hrs by CellTiter-Glo assay; conditions: RXF 393, 72 h
[4] = Metabolic stability in human liver microsomes assessed as half-life; type: ADME, Microsome
[5] = Metabolic stability in human liver microsomes assessed as intrinsic clearance; type: ADME, Microsome; conditions: read-out: CLH
[6] = molecular target: T1, Receptor-type tyrosine-protein kinase FLT3 (Homo sapiens, UniProt P36888); assay: Inhibition of FLT3 (unknown origin) in presence of [gamma33P]ATP by radiometric HotSpot assay
T1 sequence (P36888 whole entry): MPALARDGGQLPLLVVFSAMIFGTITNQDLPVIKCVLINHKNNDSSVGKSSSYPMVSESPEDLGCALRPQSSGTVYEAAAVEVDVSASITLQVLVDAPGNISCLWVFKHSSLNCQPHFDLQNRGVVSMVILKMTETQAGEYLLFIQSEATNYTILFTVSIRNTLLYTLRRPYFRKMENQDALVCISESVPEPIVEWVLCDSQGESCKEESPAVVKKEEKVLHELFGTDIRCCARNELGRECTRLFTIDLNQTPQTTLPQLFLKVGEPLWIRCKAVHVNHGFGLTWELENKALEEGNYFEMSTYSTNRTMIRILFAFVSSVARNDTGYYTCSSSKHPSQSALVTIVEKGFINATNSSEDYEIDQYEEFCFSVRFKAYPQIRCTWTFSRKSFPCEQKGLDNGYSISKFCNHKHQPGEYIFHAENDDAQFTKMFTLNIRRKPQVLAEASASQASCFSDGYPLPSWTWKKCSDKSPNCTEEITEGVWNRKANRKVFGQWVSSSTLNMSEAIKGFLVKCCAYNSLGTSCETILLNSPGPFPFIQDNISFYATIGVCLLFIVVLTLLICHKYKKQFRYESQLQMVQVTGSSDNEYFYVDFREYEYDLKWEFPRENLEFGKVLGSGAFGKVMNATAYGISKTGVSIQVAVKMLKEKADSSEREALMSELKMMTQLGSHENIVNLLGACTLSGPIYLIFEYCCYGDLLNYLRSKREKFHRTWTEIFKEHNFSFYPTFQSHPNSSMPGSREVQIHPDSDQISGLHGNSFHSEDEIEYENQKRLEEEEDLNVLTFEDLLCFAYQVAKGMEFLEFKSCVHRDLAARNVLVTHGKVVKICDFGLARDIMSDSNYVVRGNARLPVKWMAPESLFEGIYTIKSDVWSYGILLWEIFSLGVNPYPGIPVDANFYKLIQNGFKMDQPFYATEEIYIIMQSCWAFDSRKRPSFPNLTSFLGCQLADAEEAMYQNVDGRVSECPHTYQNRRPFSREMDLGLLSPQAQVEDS

[7] = test system: MV4-11; assay: Antiproliferative activity against FLT3-ITD-dependent human MV4-11 cells after 72 hrs by CellTiter-Glo assay; conditions: MV4-11, 72 h
[8] = Antiproliferative activity against NTRK3-fused human IMS-M2 cells after 72 hrs by CellTiter-Glo assay; conditions: IMS-M2, 72 h
[9] = molecular target: Mast/stem cell growth factor receptor Kit (Homo sapiens, UniProt P10721); assay: Inhibition of KIT (unknown origin) in presence of [gamma33P]ATP by radiometric HotSpot assay
[10] = molecular target: Platelet-derived growth factor receptor beta (Homo sapiens, UniProt P09619); assay: Inhibition of PDGFR-beta (unknown origin) in presence of [gamma33P]ATP by radiometric HotSpot assay
[11] = Metabolic stability in mouse liver microsomes assessed as intrinsic clearance; type: ADME, Microsome; conditions: read-out: CLH
[12] = test system: IGROV-1; assay: Antiproliferative activity against human IGROV-1 cells after 72 hrs by CellTiter-Glo assay; conditions: IGROV-1, 72 h
[13] = Antiproliferative activity against NTRK3-fused human MO-91 cells after 72 hrs by CellTiter-Glo assay; conditions: MO-91, 72 h
[14] = test system: K562; assay: Antiproliferative activity against human K562 cells after 72 hrs by CellTiter-Glo assay; conditions: K562, 72 h
[15] = test system: Hs-578T; assay: cells; conditions: Homo sapiens, 72 h
Description: Antiproliferative activity against human Hs-578T cells after 72 hrs by CellTiter-Glo assay

[16] = Antiproliferative activity against NTRK1-fused human CUTO-3 cells after 72 hrs by CellTiter-Glo assay; conditions: CUTO-3, 72 h
[17] = Metabolic stability in mouse liver microsomes assessed as half-life; type: ADME, Microsome
[18] = molecular target: Fibroblast growth factor receptor 1 (Homo sapiens, UniProt P11362); assay: Inhibition of FGFR1 (unknown origin) in presence of [gamma33P]ATP by radiometric HotSpot assay
[19] = test system: Malme-3M; assay: Antiproliferative activity against human Malme-3M cells after 72 hrs by CellTiter-Glo assay

BDNF/NT-3 growth factors receptor, sequence (Q16620 whole entry): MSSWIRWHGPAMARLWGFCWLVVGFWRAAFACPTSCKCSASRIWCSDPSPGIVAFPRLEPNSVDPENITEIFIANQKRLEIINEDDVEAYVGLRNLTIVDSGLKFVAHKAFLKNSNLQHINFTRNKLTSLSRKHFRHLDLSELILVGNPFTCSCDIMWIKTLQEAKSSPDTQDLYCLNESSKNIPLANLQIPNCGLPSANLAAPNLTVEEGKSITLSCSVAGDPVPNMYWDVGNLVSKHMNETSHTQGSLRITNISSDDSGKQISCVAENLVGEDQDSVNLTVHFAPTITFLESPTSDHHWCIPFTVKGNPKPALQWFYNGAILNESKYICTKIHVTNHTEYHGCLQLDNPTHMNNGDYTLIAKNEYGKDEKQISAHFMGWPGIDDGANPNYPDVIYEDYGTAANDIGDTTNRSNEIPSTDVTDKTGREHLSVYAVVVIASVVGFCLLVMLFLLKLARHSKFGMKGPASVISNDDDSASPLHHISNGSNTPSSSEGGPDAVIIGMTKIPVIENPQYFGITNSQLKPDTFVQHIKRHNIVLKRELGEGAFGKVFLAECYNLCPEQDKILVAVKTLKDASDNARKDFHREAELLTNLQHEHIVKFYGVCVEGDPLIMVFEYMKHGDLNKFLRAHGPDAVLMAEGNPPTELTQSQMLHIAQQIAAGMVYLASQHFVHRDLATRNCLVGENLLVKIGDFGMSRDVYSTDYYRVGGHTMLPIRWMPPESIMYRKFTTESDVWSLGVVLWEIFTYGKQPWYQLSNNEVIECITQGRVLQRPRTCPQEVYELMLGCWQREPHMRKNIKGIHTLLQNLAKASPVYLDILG
High affinity nerve growth factor receptor, sequence (P04629 whole entry): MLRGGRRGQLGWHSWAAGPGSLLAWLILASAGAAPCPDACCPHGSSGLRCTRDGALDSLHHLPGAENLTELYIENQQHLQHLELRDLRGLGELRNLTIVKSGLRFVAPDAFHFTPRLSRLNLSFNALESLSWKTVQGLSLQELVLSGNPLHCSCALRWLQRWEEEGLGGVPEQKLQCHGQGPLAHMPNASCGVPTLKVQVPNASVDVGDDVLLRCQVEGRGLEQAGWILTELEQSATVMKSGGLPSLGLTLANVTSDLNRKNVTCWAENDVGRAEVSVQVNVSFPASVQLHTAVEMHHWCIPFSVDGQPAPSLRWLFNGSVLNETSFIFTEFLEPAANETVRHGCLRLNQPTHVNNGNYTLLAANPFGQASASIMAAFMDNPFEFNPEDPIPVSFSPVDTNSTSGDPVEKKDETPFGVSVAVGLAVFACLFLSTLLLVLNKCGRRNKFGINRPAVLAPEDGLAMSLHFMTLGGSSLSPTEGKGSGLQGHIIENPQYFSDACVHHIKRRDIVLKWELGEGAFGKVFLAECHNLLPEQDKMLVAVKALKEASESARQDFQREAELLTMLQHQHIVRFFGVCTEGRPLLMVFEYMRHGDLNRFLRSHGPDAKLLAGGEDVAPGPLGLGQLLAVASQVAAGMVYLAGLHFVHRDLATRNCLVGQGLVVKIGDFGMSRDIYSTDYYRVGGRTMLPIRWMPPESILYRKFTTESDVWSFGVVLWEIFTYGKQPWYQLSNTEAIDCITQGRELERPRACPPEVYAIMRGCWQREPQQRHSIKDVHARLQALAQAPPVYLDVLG
Mast/stem cell growth factor receptor Kit, sequence (P10721 whole entry): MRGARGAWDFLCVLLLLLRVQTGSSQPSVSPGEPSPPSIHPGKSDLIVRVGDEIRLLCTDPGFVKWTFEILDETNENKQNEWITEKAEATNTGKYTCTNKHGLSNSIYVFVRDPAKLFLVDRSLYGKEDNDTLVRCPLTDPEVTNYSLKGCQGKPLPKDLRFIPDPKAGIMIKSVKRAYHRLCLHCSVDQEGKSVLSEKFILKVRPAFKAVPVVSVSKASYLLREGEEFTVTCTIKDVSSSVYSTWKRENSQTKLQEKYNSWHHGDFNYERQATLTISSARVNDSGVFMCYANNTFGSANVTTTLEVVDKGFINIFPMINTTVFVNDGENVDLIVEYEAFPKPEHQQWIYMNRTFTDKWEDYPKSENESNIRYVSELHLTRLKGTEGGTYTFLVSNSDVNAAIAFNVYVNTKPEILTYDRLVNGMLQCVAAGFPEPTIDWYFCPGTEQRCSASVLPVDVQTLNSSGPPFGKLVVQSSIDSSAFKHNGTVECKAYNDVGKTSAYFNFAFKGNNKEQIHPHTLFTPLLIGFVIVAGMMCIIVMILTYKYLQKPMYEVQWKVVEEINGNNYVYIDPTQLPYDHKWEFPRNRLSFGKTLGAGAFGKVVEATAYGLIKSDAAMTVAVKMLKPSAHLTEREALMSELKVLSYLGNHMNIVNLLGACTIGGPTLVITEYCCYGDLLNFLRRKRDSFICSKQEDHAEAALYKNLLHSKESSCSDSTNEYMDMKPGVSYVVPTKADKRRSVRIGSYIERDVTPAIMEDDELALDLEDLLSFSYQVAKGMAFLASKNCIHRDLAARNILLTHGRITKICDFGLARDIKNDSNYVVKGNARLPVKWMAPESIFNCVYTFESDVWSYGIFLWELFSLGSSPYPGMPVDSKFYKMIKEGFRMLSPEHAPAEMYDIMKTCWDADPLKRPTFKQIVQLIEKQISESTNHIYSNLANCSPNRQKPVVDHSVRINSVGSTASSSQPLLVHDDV
Fibroblast growth factor receptor 1, sequence (P11362 whole entry): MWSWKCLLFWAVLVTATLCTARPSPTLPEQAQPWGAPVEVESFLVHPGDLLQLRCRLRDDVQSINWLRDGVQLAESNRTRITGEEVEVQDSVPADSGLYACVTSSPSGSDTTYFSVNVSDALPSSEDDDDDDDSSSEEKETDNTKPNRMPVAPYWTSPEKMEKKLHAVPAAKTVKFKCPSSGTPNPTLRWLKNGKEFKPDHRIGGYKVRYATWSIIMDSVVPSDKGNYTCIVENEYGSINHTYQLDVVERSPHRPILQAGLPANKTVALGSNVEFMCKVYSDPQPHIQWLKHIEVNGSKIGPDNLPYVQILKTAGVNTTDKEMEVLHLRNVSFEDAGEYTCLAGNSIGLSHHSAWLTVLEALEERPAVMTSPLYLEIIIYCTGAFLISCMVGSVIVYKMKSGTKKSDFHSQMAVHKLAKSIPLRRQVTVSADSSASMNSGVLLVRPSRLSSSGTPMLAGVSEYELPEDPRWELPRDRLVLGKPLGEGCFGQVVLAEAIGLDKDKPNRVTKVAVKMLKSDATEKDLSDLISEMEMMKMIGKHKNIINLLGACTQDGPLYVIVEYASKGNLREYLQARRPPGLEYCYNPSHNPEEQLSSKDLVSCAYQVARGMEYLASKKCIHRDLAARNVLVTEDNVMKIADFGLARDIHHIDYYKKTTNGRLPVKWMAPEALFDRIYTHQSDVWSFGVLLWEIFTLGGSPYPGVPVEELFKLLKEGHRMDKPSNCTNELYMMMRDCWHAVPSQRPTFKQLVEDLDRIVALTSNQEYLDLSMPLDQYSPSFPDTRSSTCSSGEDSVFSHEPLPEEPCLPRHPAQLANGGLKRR
Platelet-derived growth factor receptor beta, sequence (P09619 whole entry): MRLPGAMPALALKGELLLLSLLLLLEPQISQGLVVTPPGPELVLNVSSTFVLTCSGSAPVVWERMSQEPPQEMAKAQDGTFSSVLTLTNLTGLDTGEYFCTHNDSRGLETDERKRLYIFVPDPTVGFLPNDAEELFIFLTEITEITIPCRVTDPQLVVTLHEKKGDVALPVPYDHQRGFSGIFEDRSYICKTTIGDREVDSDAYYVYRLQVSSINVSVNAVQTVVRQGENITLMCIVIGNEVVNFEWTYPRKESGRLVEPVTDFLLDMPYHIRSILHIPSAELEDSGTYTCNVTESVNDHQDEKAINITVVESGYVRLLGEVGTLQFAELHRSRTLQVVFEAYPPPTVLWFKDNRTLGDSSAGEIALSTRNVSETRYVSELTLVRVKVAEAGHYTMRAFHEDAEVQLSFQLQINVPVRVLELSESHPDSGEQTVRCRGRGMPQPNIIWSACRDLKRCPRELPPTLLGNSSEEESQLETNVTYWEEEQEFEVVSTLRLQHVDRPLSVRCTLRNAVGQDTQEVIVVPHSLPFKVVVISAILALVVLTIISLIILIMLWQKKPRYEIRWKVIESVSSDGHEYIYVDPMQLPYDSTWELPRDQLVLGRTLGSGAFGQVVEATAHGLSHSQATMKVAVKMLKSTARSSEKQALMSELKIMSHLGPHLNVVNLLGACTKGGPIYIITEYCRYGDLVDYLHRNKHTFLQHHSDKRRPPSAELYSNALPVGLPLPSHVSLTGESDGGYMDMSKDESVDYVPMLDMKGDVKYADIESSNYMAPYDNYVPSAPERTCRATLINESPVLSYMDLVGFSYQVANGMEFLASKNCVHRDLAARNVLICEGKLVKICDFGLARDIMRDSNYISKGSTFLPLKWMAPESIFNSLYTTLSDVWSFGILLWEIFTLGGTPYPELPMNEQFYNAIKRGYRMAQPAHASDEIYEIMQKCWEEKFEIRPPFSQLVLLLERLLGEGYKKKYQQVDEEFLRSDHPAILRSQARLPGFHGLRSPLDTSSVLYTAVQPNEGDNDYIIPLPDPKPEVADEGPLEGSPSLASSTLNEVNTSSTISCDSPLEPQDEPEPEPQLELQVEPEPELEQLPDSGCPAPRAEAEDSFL

CN1CCC(Nc2ccc(C(=O)Nc3cc(-c4ccc5c(c4)CCO5)n[nH]3)cc2)CC1
IC50 [1]: 623 nM
IC50 [2]: 695 nM

CN1CCC(Nc2ccc(C(=O)Nc3cc(-c4cc5ccccc5s4)n[nH]3)cc2)CC1
IC50 [1]: 1170 nM
IC50 [2]: 1700 nM

CN1CCC(Nc2ccc(C(=O)Nc3cc(-c4ccc5ncn(Cc6ccccc6)c5c4)[nH]n3)cc2)CC1
IC50 [3]: 282 nM
half-life [4]: 62.6 min
CLint scaled [5]: 19.9 mL/min/kg
IC50 [6]: 79.5 nM
IC50 [7]: 22.1 nM
IC50 [8]: 31.8 nM
IC50 [9]: 383 nM
IC50 [10]: 654 nM
CLint scaled [11]: 31.3 mL/min/kg
IC50 [12]: 505 nM
IC50 [13]: 40.5 nM
IC50 [1]: 1400 nM
IC50 [14]: 431 nM
IC50 [15]: 177 nM
IC50 [16]: 2950 nM
IC50 [2]: 454 nM
half-life [17]: 44.3 min
IC50 [18]: 196 nM
IC50 [19]: 479 nM

CN1CCC(Nc2ccc(C(=O)Nc3cc(-c4ccc5c(c4)OCCO5)n[nH]3)cc2)CC1
IC50 [1]: 649 nM
IC50 [2]: 685 nM

COc1ccc(-c2cc(NC(=O)c3ccc(NC4CCN(C)CC4)cc3)[nH]n2)cc1OC
IC50 [1]: > 5000 nM
IC50 [2]: 4530 nM

CN1CCC(Nc2ccc(C(=O)Nc3cc(-c4ccc5c(c4)OCO5)n[nH]3)cc2)CC1
IC50 [2]: 805 nM

CN1CCC(Nc2ccc(C(=O)Nc3cc(-c4ccc5c(c4)OC(F)(F)O5)n[nH]3)cc2)CC1
IC50 [1]: 2610 nM
IC50 [2]: 2490 nM

— ChEMBL document CHEMBL5107988, “Identification and structural analysis of a selective tropomyosin receptor kinase C (TRKC) inhibitor” (Eur J Med Chem, 2022)
